# Results reported in patent US4678775A, “Method of controlling pests” (priority 1984, dated 1987).
# Key:
# [1] = system: octopamine-sensitive adenylate cyclase; conditions: Nathanson et al. 1981; cited from earlier work
# [2] = system: isolated tails of Photinus males; assay: Stimulation of light production after injection into transected, isolated firefly tails; type: in vivo
# [3] = target: T1, Beta1 and Beta2-adrenergic-stimulated adenylate cyclase in rat liver (Rattus norvegicus, UniProt P10608); assay: Adenylate cyclase stimulation in rat liver; type: biochemical
# T1 construct: adenylate cyclase in rat heart and liver; from tissue; host or cells: rat liver
# [4] = system: Beta1 and Beta2-adrenergic-stimulated adenylate cyclase in rat liver; assay: Adenylate cyclase stimulation in rat liver; type: biochemical
# [5] = system: octopamine-sensitive adenylate cyclase; assay: Activation of octopamine-sensitive adenylate cyclase, firefly light organ broken cell preparation; type: biochemical, Photinus pyralis
# [6] = system: tobacco hornworms (Manducca sexta); assay: In vivo leaf test (antifeeding) on tomato leaves with tobacco hornworm larvae; conditions: for effect of addition of IBMX on antifeeding / pesticidal activity: with PDE inhibitor IBMX
# [7] = system: Beta1 and Beta2-adrenergic-stimulated adenylate cyclase in rat heart; assay: Adenylate cyclase stimulation in rat heart; type: biochemical
# [8] = target: T2, Beta1 and Beta2-adrenergic-stimulated adenylate cyclase in rat heart (Rattus norvegicus, UniProt P18090); assay: Adenylate cyclase stimulation in rat heart; type: biochemical
# T2 construct: adenylate cyclase in rat heart and liver; from tissue; host or cells: rat heart
# [9] = target: T3, dopamine-sensitive adenylate cyclase in rat caudate nucleus (Rattus norvegicus, UniProt P18901); assay: Adenylate cyclase stimulation in rat caudate nucleus; type: biochemical
# T3 construct: in the rat caudate nucleus; from tissue; host or cells: rat caudate nucleus
# [10] = system: adenylate cyclase in the firefly lantern; assay: Direct activation of adenylate cyclase in firefly lantern (forskolin); type: biochemical, Photinus pyralis; conditions: FIG. 2, firefly lantern
# From the text: The second type of pest controlling compounds (2) useable in the present compositions are direct stimulators of the pest enzyme adenylate cyclase. These compounds bypass the receptor, and interact with one or another of the associated catalytic or regulatory subunits of adenylate cyclase, thereby stimulating the formation of cyclic AMP. Suitable compounds can be determined from assay of pest adenylate cyclase as described above.
# Specimens of Photinus pyralis were collected in summer, frozen on dry ice, and stored at -90°. […] For each experiment, a number of insects were thawed and maintained at 4° C. […]
# Adenylate cyclase activation by test compounds was measured in test tubes containing (in 0.3 ml) 80 mM Tris-maleate, pH 7.4; 10 mM theophylline; 8 mM MgCl2; 0.1 mM GTP; 0.5 mM ethylene glycol bis(beta-aminoethyl ether)-N,N,N',N'-tetraacetic acid; 2 mM ATP; 0.06 ml of P2 fractions; and the various compounds to be tested. Prior experiments had determined that, under these conditions, octopamine-sensitive adenylate cyclase activity is optimized. […] Cyclic AMP in the supernatant was measured by protein-binding assay, according to the method of Brown et al., Adv. […] Protein concentration was determined by the method of Lowry et al., Journal of Biological Chemistry 193: 265-275 (1951). […]
# [11] = system: adenylate cyclase in nerve cord of tobacco hornworm; assay: Adenylate cyclase activation in broken cell preparations of tobacco hornworm nerve cord; type: biochemical, tobacco hornworm (Manducca sexta); conditions: FIG. 3, hornworm larvae nerve cord
# Description: Otherwise, the procedure is identical to that described above.
# The tissue is homogenized (usually 15 mg/ml) as above in 6 mM Tris maleate, pH 7.4. […] This is done to cancel out the effects of dopamine and serotonin receptors which are usually present in nerve cord.
# As detailed previously, the adenylate cyclase assay, either in the firefly or in other insect pest, is also used to identify a direct stimulator of adenylate cyclase.
# [12] = Cyclic AMP analogue remaining after incubation with nerve cord homogenate; type: in vitro ADME, tobacco hornworm; conditions: in vitro 4 hours; IBMX 0.1 mM; FIG. 7
# Description: It has been previously shown, above, that PDE inhibition can increase the concentration of cyclic AMP in insect tissue. […] In order to do this, a fixed amount of butyl-benzylthio cyclic AMP was incubated in vitro for 4 hours in the presence of a tissue homogenated from tobacco hornworm nerve cord. In some tubes, IBMX (0.1 mM) was added to inhibit PDE. After the incubation, the amount of butyl-benzylthio cyclic AMP remaining was measured by protein binding assay (Brown et al., supra), using a standard curve based upon butyl-benzylthio cyclic AMP.
# T3 sequence (P18901 whole entry): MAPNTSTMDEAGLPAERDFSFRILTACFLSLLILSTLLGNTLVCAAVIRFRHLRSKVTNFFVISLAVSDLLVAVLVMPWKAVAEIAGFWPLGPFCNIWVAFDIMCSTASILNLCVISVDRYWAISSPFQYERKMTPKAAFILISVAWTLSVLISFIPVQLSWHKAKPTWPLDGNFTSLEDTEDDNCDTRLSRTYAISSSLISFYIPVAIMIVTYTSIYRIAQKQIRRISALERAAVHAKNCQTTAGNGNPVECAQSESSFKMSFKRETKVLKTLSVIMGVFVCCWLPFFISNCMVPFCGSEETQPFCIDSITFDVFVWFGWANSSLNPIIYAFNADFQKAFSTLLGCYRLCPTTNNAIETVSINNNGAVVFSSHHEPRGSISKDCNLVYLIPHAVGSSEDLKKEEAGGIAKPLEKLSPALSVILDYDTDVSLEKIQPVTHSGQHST
# T2 sequence (P18090 whole entry): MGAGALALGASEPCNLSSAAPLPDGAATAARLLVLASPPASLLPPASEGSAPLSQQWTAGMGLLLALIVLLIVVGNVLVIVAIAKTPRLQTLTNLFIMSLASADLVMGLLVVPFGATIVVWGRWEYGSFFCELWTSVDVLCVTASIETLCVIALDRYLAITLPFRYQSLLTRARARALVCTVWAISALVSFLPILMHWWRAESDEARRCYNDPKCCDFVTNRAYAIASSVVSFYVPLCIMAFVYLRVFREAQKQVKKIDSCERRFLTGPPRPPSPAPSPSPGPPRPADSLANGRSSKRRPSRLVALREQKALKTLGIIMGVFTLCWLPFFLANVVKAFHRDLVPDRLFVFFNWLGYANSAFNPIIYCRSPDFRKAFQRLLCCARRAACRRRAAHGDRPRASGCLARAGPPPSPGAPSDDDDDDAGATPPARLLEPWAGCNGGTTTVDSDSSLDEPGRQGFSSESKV
# T1 sequence (P10608 whole entry): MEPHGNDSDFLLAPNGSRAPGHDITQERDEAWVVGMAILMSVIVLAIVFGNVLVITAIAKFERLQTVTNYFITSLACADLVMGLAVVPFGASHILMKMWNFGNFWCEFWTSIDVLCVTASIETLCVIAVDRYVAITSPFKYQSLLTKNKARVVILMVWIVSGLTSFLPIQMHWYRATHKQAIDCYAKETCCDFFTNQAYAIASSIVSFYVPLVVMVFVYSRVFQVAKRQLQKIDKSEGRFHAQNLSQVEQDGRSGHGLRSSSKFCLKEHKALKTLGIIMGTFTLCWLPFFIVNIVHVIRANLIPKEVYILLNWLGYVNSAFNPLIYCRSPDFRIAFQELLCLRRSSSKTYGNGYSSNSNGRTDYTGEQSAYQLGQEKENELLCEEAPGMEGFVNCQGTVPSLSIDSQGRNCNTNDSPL
structure (smiles),measurement,setting,value
"CNC=Nc1ccc(Cl)cc1C [DCDM, N-demethylchlordimeform]",potency relative to octopamine as partial agonist of light organ octopamine-stimulated adenylate cyclase,[1],about six-fold more potent than octopamine
"CCc1cccc(CC)c1N=C1NCCN1 [NC 5, 2-(2,6-diethylphenylimino)imidazolidine]",EC50 for stimulated light emission,[2]; injected into isolated tails,about 0.3 nmoles
same,times as potent as octopamine,[2]; light emission EC50,more than 16 times
same,stimulation of adenylate cyclase,[3],neither octopamine nor NC5 were active
same,inhibition of basal adenylate cyclase activity,[4],In none of the three mammalian tissues did NC5 cause any inhibition
same,Ka (half-maximal activation),[5],about 1 μM
same,Ka fold lower than that due to octopamine,[5],20 fold
same,maximal stimulation relative to octopamine,[5],equal to that caused by octopamine
same,Ka ratio to octopamine,"[5]; Table 2, clonidines",19.0
same,Vmax (% OCT),"[5]; Table 2, clonidines, N.A. = no activity",97 % OCT
same,activity as an octopamine antagonist,[5]; combinations of octopamine and NC5,no activity as an octopamine antagonist
same,lowest concentration with significant stimulation,[5]; unit not given,3×10^-8
same,% Leaf Remaining,"[6]; Table 5, agonist 3 × 10^-1 gm/100 ml, IBMX 0.1 g/100 ml",70%
same,effect of addition of IBMX on antifeeding / pesticidal activity,[6],substantial increases in the potency
same,inhibition of basal adenylate cyclase activity,[7],In none of the three mammalian tissues did NC5 cause any inhibition
same,stimulation of adenylate cyclase,[8],almost completely inactive
same,inhibition of basal adenylate cyclase activity,[9],In none of the three mammalian tissues did NC5 cause any inhibition
same,stimulation of adenylate cyclase,[9],neither octopamine nor NC5 caused any significant enzyme stimulation
C=C[C@@]1(C)CC(=O)[C@]2(O)[C@@]3(C)[C@@H](O)CCC(C)(C)[C@@H]3[C@H](O)[C@H](OC(C)=O)[C@@]2(C)O1 [forskolin],Ka ratio,[10],0.22
same,Vmax,[10],100%
same,Ka ratio,[11],0.20
same,Vmax,[11],about 100%
same,antifeeding activity,"[6]; compound itself, in words",has antifeeding activity
same,effect of addition of IBMX on antifeeding / pesticidal activity,[6],enhanced
"CCCCNc1ncnc2c1nc(SCc1ccccc1)n2[C@@H]1O[C@@H]2COP(=O)(O)O[C@H]2[C@H]1O [n-butylaminobenzylthio cyclic AMP, 6-n-butylamino-8-benzylthio-cyclic AMP, reference compound]","amount of cyclic AMP analogue present after 4 hours, with IBMX versus without",[12],more than doubled
same,antifeeding activity,"[6]; concentration of 1%, absence of IBMX",showed antifeeding activity
same,effect of addition of IBMX on antifeeding / pesticidal activity,[6],increased by addition of IBMX
